# Measurements from article PMC2764853, “Versatile Assays for High Throughput Screening for Activators or Inhibitors of Intracellular Proteases and Their Cellular Regulators” (PLoS ONE, 2009).
# Residues, ends and D or L forms follow the SMILES beside them. *: point of attachment. Cbz = O=C(OCc1ccccc1)*; CH2F = FC*
# Tests used:
# [1] = tested on: Caspase8 activated with FADD + Fas; experiment: Yeast cleavable-reporter β-galactosidase assay, Fas/FADD/Caspase-8 three-component system (384 well); assay type: cell-based, human; conditions: for selectivity for Fas/FADD/Caspase-8 over Asc/Caspase-1 in yeast reporter assays: 384 well, various concentrations, 2–4 days at 30°C, OD620, counter-strains lacZ, Asc/Caspase-1, empty vector
# Description: (§1) Figure 5 Validation of yeast-based assay using pharmacological inhibitor of Caspases. (A) Caspase-1, single component assay. EGY48 yeast cells expressing S1 substrate (TEF-Fas-d-S1-TA) and high levels of Caspase-1 (TEF-HA-Caspase1-FLAG) were incubated for 3 days in selection media (SD/X-gal) with the indicated concentrations of z-VAD-fmk in DMSO (•) or DMSO only (○), using 384-well plates. (B) Asc/Caspase-1 two-component system. EGY48 yeast cells expressing S1 substrate (TEF-Fas-d-S1-TA) a low level of pro-Caspase-1 (ΔTEF1-Caspase1-FLAG) and high levels of Asc (TEF-HA-Asc) were incubated for 3 days in the selection media (SD/X-gal) in 384 well plates with the indicated concentrations of calpeptin (▴) or z-VAD-fmk (•) or an equivalent volume of DMSO (○). (C) Fas/FADD/Caspase8 three-component system. EGY48 yeast cells expressing S8 substrate (TEF-S8-TA), low levels of pro-Caspase-8 CYC1-Caspase-8-HA, with a small amount of FADD (from ΔADH1 promoter) and a large amount of Fas (from ADH promoter), were incubated in selection media (SD/X-gal) with the indicated concentrations of calpeptin (▴) or z-VAD-fmk (•), or equivalent volume of DMSO (○), in 384-well plates for 3–4 days. For (A–C), relative absorbance at 620 nm was measured (mean ± std dev; n = 3−5 independent experiments). (* indicates p<0.001).
# Figure 6 HTS Implementation of yeast-based, 3-component Caspase assays. (A) Validation of HTS assay for NLRP1-Asc-Caspase-1 system. Yeast cells (18 µl, typically at ≈2×10^5 cells/well) containing NLRP1ΔLRR/Asc/Caspase-1 were plated into wells of 384 well plates in media containing 1% galactose, 0.2% raffinose. Wells also contained 18 µL selection media with (blue squares) or without (purple diamonds) X-gal substrate (400 µg/mL final Concentration) plus 10% DMSO (4 µl) (to simulate compound addition). The plates were incubated for 72 hrs at 30°C and the OD620 was recorded. Values (mean±std dev) were calculated for the assay maximum and minimum. The Z' factor was calculated as described. (B) Example of library screening plate for NLRP1-Asc-Caspase-1. Yeast cells (typically at ≈2×10^5 cells/well) containing NLRP1/Asc/Caspase-1 were plated in 384 well plates in Selection Media, without (purple triangles) or with (all other wells) 400 µg/ml X-gal (final concentration). Compounds in DMSO (∼10 µM final) had been pre-added to wells (diamonds). The plates were incubated for 72 hrs at 30°C and the OD620 was recorded, “Hits” were defined by >50% reduction (as shown in green diamonds). […] Yeast cells containing Fas/FADD/Caspase-8 were cultured in 384 well plates as above with (blue squares) or without (purple diamonds) X-gal substrate, the plates were incubated for 72 hrs at 30°C and analyzed as above. […] Plates were incubated for 48 hrs at 30°C and OD620 values recorded. […]
# Caspases = experiment: Yeast-based Caspase-dependent lacZ reporter gene assays, 384 well format (summary over assays); assay type: cell-based, human
# Description: We further validated the 384 well assay format, using zVAD-fmk, a peptidyl inhibitor with broad-spectrum activity against animal Caspases. For some experiments, a Calpain inhibitor was employed in side-by-side experiments as a control. The broad-spectrum Caspase inhibitor zVAD-fmk inhibited β-galactosidase activity in a dose-dependent fashion, with the concentration required for achieving 50% inhibition ranging from ∼1–10 µM in these assays, which were performed in 384 well format (Figure 5) (Table S1). […] These experiments verify that the 384 well version of the yeast-based Caspase-dependent reporter gene assay faithfully indicates the activity of an inhibitory compound, thus fulfilling one of the prerequisites for developing HTS assays.
# Figure 5 Validation of yeast-based assay using pharmacological inhibitor of Caspases. (A) Caspase-1, single component assay. EGY48 yeast cells expressing S1 substrate (TEF-Fas-d-S1-TA) and high levels of Caspase-1 (TEF-HA-Caspase1-FLAG) were incubated for 3 days in selection media (SD/X-gal) with the indicated concentrations of z-VAD-fmk in DMSO (•) or DMSO only (○), using 384-well plates. […] For (A–C), relative absorbance at 620 nm was measured (mean ± std dev; n = 3−5 independent experiments). […]
# (§2) For caspase assays, the assays were performed in a total volume of 40 µl in triplicate. […] Absorbance at 620 nm was measured 2–3 days after culture at 30°C.
# Caspase6 = molecular target: T1, Caspase6 (Homo sapiens, UniProt P55212); experiment: Yeast cleavable-reporter β-galactosidase assay, Caspase-6 (384 well); assay type: cell-based; conditions: yeast expressing Caspase6; 384 well β-galactosidase activity assay; read-out: IC50 for z-VAD inhibition of Caspases
# T1 construct: We expressed full-length Caspases-1, 2, 3, 4, 5, 6, 7, and 9 from high copy-number plasmids; HA (N); expressed in transfected cells; host or cells: Saccharomyces cerevisiae (EGY48)
# T1 sequence (P55212 24-179 limits assumed): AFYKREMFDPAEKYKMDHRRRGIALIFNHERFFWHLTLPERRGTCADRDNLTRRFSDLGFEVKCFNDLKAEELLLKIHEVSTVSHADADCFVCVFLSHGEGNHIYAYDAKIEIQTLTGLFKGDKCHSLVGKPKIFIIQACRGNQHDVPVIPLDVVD
# T1 sequence (P55212 194-293 limits assumed): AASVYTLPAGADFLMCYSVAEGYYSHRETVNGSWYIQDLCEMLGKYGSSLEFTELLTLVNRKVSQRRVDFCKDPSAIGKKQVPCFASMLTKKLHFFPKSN
# Description: (§3) For caspase assays, the assays were performed in a total volume of 40 µl in triplicate. First, 20 µl of liquid selection media containing X-gal and a series of concentrations of reagents such as z-VAD was dispensed into each well of 384-well plates. Next, confluent yeast cells expressing various Caspases and cleavable substrates were collected, washed with water, and suspended in selection media of the same volume as the culture media. The yeast suspension was diluted to 1∶5-10 (v:v) with the selection media, and 20 µl aliquots were added to the 384-well plates. For ATG4B assays, yeast cells expressing ATG4B and LC3 fused-transcription factor were cultured overnight in standard growth medium, then the yeast cells were diluted in selection medium (SD medium containing 1% galactose, 0.2% raffinose, BU salts, and 100 µg/ml X-gal) at 10^4/ml and dispensed 100 µl into each well of 384-well plates. Absorbance at 620 nm was measured 2–3 days after culture at 30°C.
# (§4) Supplementary file pone.0007655.s002.pdf: Table S1 Determination of IC50 values for zVAD-fmk inhibition of Caspases in yeast. […] The compound was titrated into assays at various concentrations and percentage inhibition was determined. IC50 values were determined, using PRIZM software for analysis. […]
# [2] = molecular target: Caspase1 activated with Asc; experiment: Yeast cleavable-reporter β-galactosidase assay, Asc/Caspase-1 two-component system (384 well); assay type: cell-based, human; conditions: 384 well β-galactosidase activity assay, read-out: IC50 for z-VAD inhibition of Caspases
# Description: as §1, with “EGY48 yeast cells expressing S8 substrate (TEF-S8-TA), low levels of pro-Caspase-8 CYC1-Caspase-8-HA, with a small amount of FADD (from ΔADH1 promoter) and a large amount of Fas (from ADH promoter), were incubated in selection media (SD/X-gal) with the indicated concentrations of calpeptin (▴) or z-VAD-fmk (•), or equivalent volume of DMSO (○), in 384-well plates for 3–4 days.” left out, “(* indicates p<0.001).” left out
# For caspase assays, the assays were performed in a total volume of 40 µl in triplicate. […] Absorbance at 620 nm was measured 2–3 days after culture at 30°C. […]
# as §4
# Caspase1 = molecular target: T2, Caspase1 (Homo sapiens, UniProt P29466); experiment: Yeast cleavable-reporter β-galactosidase assay, Caspase-1 single component (384 well); assay type: cell-based; conditions: yeast expressing Caspase1 alone at high levels; 384 well β-galactosidase activity assay; read-out: IC50 for z-VAD inhibition of Caspases
# T2 construct: We expressed full-length Caspases-1, 2, 3, 4, 5, 6, 7, and 9 from high copy-number plasmids; HA (N); FLAG (C); expressed in transfected cells; host or cells: Saccharomyces cerevisiae EGY48
# T2 sequence (P29466 120-297 limits assumed): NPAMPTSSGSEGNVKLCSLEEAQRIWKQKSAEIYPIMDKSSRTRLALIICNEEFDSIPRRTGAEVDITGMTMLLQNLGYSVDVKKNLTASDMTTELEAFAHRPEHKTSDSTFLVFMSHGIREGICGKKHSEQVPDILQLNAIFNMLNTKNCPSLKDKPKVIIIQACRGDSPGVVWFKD
# T2 sequence (P29466 317-404 limits assumed): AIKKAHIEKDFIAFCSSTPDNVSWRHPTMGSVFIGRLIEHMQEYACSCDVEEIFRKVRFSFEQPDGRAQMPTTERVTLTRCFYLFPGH
# Description: as §1, with “EGY48 yeast cells expressing S8 substrate (TEF-S8-TA), low levels of pro-Caspase-8 CYC1-Caspase-8-HA, with a small amount of FADD (from ΔADH1 promoter) and a large amount of Fas (from ADH promoter), were incubated in selection media (SD/X-gal) with the indicated concentrations of calpeptin (▴) or z-VAD-fmk (•), or equivalent volume of DMSO (○), in 384-well plates for 3–4 days.” left out, “(* indicates p<0.001).” left out
# as §2, §4
# [3] = molecular target: Caspase10 activated with FADD; experiment: Yeast cleavable-reporter β-galactosidase assay, FADD/Caspase-10 (384 well); assay type: cell-based, human; conditions: 384 well β-galactosidase activity assay, read-out: IC50 for z-VAD inhibition of Caspases
# Description: as §3, §4
# [4] = molecular target: Caspase9 activated with Apaf*; experiment: Yeast cleavable-reporter β-galactosidase assay, Apaf*/Caspase-9 (384 well); assay type: cell-based, human; conditions: 384 well β-galactosidase activity assay, read-out: IC50 for z-VAD inhibition of Caspases
# Description: as §3, §4
# [5] = tested on: NLRP1/ASC/Caspase-1 proteolytic network; experiment: Yeast cleavable-reporter β-galactosidase assay, NLRP1/ASC/Caspase-1 three-component system (384 well); assay type: cell-based, human; conditions: 100 µM zVAD final, 2×10^5 cells/well, 48 hours, 400 µg/ml X-gal; Assay Max (DMSO) 0.78
# Description: For the Fas/FADD/Caspase-8 and the NLRP1/Asc/Caspase-1 assays, EGY48 yeast containing the desired plasmids were streaked onto SD plates (6.8 g Yeast Nitrogen Base w/o amino acids, 20 mg arginine, 50 mg threonine, 30 mg isoleucine, 60 mg phenylalanine, 20 mg valine) containing agar (1.7%), supplemented with 2% α-D-glucose and 50 µg/mL leucine. The plates were incubated at 30°C for 48 hrs and a colony was picked and transferred to a 14 ml polypropylene tube containing 2 ml of SD media broth supplemented with α-D-glucose and leucine as above and grown at 30°C for 16–24 hrs with shaking. Then, 1 ml of the overnight culture was transferred into 20 mls of growth media in a 500 ml flask and shaken at 30°C for 16–24 hrs. […] After 48 hours, the plates were brought to room temperature, the breathable film removed and replaced with the transparent polyester tape seal, and the plates were mixed, pelleted briefly and read using a Beckman DTX 880, recording absorbance at 620 nm.
# Supplementary file pone.0007655.s020.pdf: Figure S18 Determination of Z' scores for NLRP1(NALP1) and Fas(CD95) 3-component yeast-based HTS assays using caspase inhibitor zVAD-fmk. […] The Z' scores were determined by comparison of the DMSO-treated samples with the zVAD-treated samples. […]
smiles,measurement,setting,value
c1ccc2c(c1)[I+]c1ccccc1-2 [CID-3101],selectivity for Fas/FADD/Caspase-8 over Asc/Caspase-1 in yeast reporter assays,[1],selective inhibition of Fas-FADD-Caspase-8
C[n+]1cc2c3c(ccc2c2ccc4cc5c(cc4c21)OCO5)OCO3 [CID-5154],selectivity for Fas/FADD/Caspase-8 over Asc/Caspase-1 in yeast reporter assays,[1],selective inhibition of Fas-FADD-Caspase-8
"CCCC[C@@H](C=O)NC(=O)[C@H](CC(C)C)NC(=O)OCc1ccccc1 [Calpain inhibitor, calpeptin]",suppression of activation of the lacZ reporter gene,Caspases; control compound side-by-side with zVAD-fmk,did not suppress activation of the lacZ reporter gene
COC(=O)C[C@H](NC(=O)[C@H](C)NC(=O)[C@@H](NC(=O)OCc1ccccc1)C(C)C)C(=O)CF [zVAD-fmk] (Cbz-Val-Ala-Asp(OMe)-CH2F),IC50,Caspase6,6.78 µM
same,IC50,[2],1 µM
same,IC50,Caspase1,3.07 µM
same,IC50,[3],9.52 µM
same,IC50,[4],10.7 µM
same,IC50,"Caspases; range over the yeast Caspase assays, dose-dependent, read-out: concentration required for achieving 50% inhibition of β-galactosidase activity",1 to 10 µM
same,"Assay Min (zVAD), absorbance OD620","[1]; 100 µM zVAD final, 2×10^5 cells/well, 48 hours, 400 µg/ml X-gal, Assay Max (DMSO) 0.56",0.20
same,IC50,"[1]; yeast, Caspase8 activated with FADD + Fas, 384 well β-galactosidase activity assay, read-out: IC50 for z-VAD inhibition of Caspases",5.42 µM
same,"Assay Min (zVAD), absorbance OD620",[5],0.19
